Reference: patent US20250017935A1, “7,8-DIHYDRO-5H-1,6-NAPHTHYRIDINE DERIVATIVES AS POSITIVE ALLOSTERIC MODULATORS OF THE MUSCARINIC ACETYLCHOLINE RECEPTOR M4 FOR TREATING NEUROLOGICAL AND PSYCHIATRIC DISORDERS” (Vanderbilt University, priority 2021, published 2025)

Target: T1, Human M4 (Homo sapiens, UniProt P08173)
T1 construct: expressed in transfected cells; host or cells: CHO-K1 (ATCC), stably expressing hM4 and Gqi5
T1 sequence (P08173 1-479): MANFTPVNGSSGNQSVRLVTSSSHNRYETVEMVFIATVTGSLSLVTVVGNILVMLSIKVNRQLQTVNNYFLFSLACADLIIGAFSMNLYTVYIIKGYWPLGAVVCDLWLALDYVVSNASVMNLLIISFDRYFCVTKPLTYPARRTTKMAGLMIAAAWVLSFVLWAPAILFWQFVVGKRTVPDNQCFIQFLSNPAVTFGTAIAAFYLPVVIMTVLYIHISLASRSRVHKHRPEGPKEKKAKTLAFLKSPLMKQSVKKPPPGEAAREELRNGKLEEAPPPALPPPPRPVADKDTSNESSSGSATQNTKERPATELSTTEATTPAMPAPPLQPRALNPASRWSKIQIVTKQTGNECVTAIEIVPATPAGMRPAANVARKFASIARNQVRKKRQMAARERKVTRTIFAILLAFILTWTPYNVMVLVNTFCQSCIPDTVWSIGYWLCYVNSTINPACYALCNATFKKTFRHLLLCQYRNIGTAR
Assay: mAChR M4 cell-based functional assay (calcium flux, potentiation of EC20 acetylcholine response) in hM4-Gqi5 CHO-K1 cells
Conditions: for Emax at 30 µM: % ACh maximum at 30 μM, human M4 CHO-K1 cells; for EC50: CHO-K1 cells transfected with human M4 and Gqi5, positive allosteric modulator activity, EC20 acetylcholine
Procedure, shortened: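 CHO-K1 cells stably expressing human M4 with chimeric Gqi5, Fluo-4 AM-loaded; 11-point 1:3 compound series added, intracellular calcium recorded by FDSS at 1 Hz. PAM EC50 is concentration giving 50% of maximal compound-induced increase above the acetylcholine EC20 baseline, from four-parameter logistic fit; Emax also derived.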

SMILES	Emax at 30 µM	EC50
FC(F)(F)c1cnc2c(c1)CN(c1nc(Cl)nc3c1COC3)CC2 [Compound 62, 2-chloro-4-[3-(trifluoromethyl)-7,8-dihydro-5H-1,6-naphthyridin-6-yl]-5,7-dihydrofuro[3,4-d]pyrimidine]	58%	3290 nM
Clc1nc2c(c(N3CCc4ncc(N5CCOc6ncccc65)cc4C3)n1)COC2 [Compound 63, 1-[6-(2-chloro-5,7-dihydrofuro[3,4-d]pyrimidin-4-yl)-7,8-dihydro-5H-1,6-naphthyridin-3-yl]-2,3-dihydropyrido[2,3-b][1,4]oxazine]	56%	370 nM
Clc1nc2c(c(N3CCc4ncc(N5CCCn6nccc65)cc4C3)n1)COC2 [Compound 64, 2-chloro-4-(3-(6,7-dihydropyrazolo[1,5-a]pyrimidin-4(5H)-yl)-7,8-dihydro-1,6-naphthyridin-6(5H)-yl)-5,7-dihydrofuro[3,4-d]pyrimidine]	62%	300 nM

Second part, the compound after the results:

Emax at 30 µM	EC50	SMILES
35%	3260 nM	C[C@@H]1CN(c2cnc3c(c2)CN(c2nc(Cl)nc4c2COC4)CC3)CCO1 [Compound 65, (R)-2-chloro-4-(3-(2-methylmorpholino)-7,8-dihydro-1,6-naphthyridin-6(5H)-yl)-5,7-dihydrofuro[3,4-d]pyrimidine]
54%	580 nM	Clc1nc2c(c(N3CCc4ncc(C5CC5)cc4C3)n1)COC2 [Compound 66, 2-chloro-4-(3-cyclopropyl-7,8-dihydro-1,6-naphthyridin-6(5H)-yl)-5,7-dihydrofuro[3,4-d]pyrimidine]
51%	1220 nM	Cn1nccc1Nc1cnc2c(c1)CN(c1nc(Cl)nc3c1COC3)CC2 [Compound 67, 6-(2-chloro-5,7-dihydrofuro[3,4-d]pyrimidin-4-yl)-N-(1-methyl-1H-pyrazol-5-yl)-5,6,7,8-tetrahydro-1,6-naphthyridin-3-amine]
51%	920 nM	Fc1ncccc1Nc1cnc2c(c1)CN(c1nc(Cl)nc3c1COC3)CC2 [Compound 68, 6-(2-chloro-5,7-dihydrofuro[3,4-d]pyrimidin-4-yl)-N-(2-fluoropyridin-3-yl)-5,6,7,8-tetrahydro-1,6-naphthyridin-3-amine]
42%	990 nM	Fc1ccccc1Oc1cnc2c(c1)CN(c1nc(Cl)nc3c1COC3)CC2 [Compound 69, 2-chloro-4-(3-(2-fluorophenoxy)-7,8-dihydro-1,6-naphthyridin-6(5H)-yl)-5,7-dihydrofuro[3,4-d]pyrimidine]
